# Results taken from US7232912B2, “Indazole compounds, pharmaceutical compositions, and methods for mediating or inhibiting cell proliferation” (Agouron Pharmaceuticals, Inc., priority 2000, dated 2007).
# pIC50, pKi: −log10 of the molar value. Like-named read-outs stand apart in the source and are kept apart here.
# What was measured:
# [1] = tested on: HCT 116 cell line; test: Inhibition of Cell Growth (MTT tetrazolium salt assay); format: cell-based; details: Homo sapiens; for pIC50: 50% inhibition of growth, read-out: HCT 116 IC50; for IC50: HCT-116, read-out: HCT 116 IC50 (uM)
# Description: Inhibition of Cell Growth: Assessment of Cytotoxicity
# Inhibition of cell growth was measured using the tetrazolium salt assay, which is based on the ability of viable cells to reduce 3-(4,5-dimethylthiazol-2-yl)-2,5-[2H]-diphenyltetrazolium bromide (MTT) to formazan (Mossman, Journal of Immunological Methods, vol. 65 (1983), pp. 55–58). The water-insoluble purple formazan product was then detected spectrophotometrically. The HCT 116 cell line was grown in 96-well plates. Cells were plated in the appropriate medium at a volume of 135 μl/well in McCoy's 5A Medium. Plates were incubated for four hours before addition of inhibitor compounds. Different concentrations of inhibitor compounds were added in 0.5% (v/v) dimethylsulfoxide (15 μL/well), and cells were incubated at 37° C. (5% CO2) for four to six days (depending on cell type). At the end of the incubation, MTT was added to a final concentration of 0.2 mg/mL, and cells were incubated for 4 hours more at 37° C. After centrifugation of the plates and removal of medium, the absorbance of the formazan (solubilized in dimethylsulfoxide) was measured at 540 nm. The concentration of inhibitor compound causing 50% inhibition of growth was determined from the linear portion of a semi-log plot of inhibitor concentration versus percentage inhibition. All results were compared to control cells treated only with 0.5% (v/v) dimethylsulfoxide.
# [2] = target: T1, FGFR1 tyrosine kinase (Homo sapiens, UniProt P11362, C488A/C584S/L457V); test: Inhibition of phosphorylated FGF receptor tyrosine kinase activity; format: biochemical; details: read-out: FGF % Inhib. at 1 μM
# T1 construct: the cytosolic domain of FGFR1 tyrosine kinase (amino acids 456–766); made in house; host or cells: Sf9 insect cells (baculovirus)
# Description: Inhibition of Phosphorylated FGF Receptor and LCK Tyrosine Kinase Activity
# Cloning, expression and purification of the cytosolic domain of FGFR1 tyrosine kinase (amino acids 456–766) containing three amino acid substitutions (L457V, C488A, and C584S) were conducted as previously described (Mohammadi, M., Schlessinger, J., & Hubbard, S. R. (1996) Cell 86, 577–587). This domain was expressed in Sf9 insect cells using a baculovirus expression vector, and protein was purified using conventional techniques. The LCK tyrosine kinase was expressed in insect cells as an N-terminal deletion starting from amino acid 223 to the end of the protein at amino acid 509. The N-terminus of the protein also had two amino acid substitutions, P223M and C 224D. Kinases were purified using conventional chromatographic methods.
# Tyrosine kinase activity was measured using a coupled, continuous spectrophotometric assay, in which production of phosphorylated poly(Glu, Tyr; 4:1) substrate and ADP is coupled to the pyruvate kinase-catalyzed transfer of a phosphate from phosphoenolpyruvate to ADP, with generation of pyruvate and regeneration of ATP. Pyruvate production is in turn coupled to the lactate dehydrogenase-catalyzed reduction of pyruvate to form lactate, with concomitant conversion of NADH to NAD+. Loss of NADH is monitored by measuring absorbance at 340 nm (see e.g., Technikova-Dobrova et al., “Spectrophotometric determination of functional characteristics of protein kinases with coupled enzymatic assay,” FEBS Letters, vol. 292 (1991), pp. 69–72). Enzyme activity was measured in the presence of 200 mM HEPES (pH 7.5), 2 mM phosphoenolpyruvate, 0.3 mM NADH, 20 mM MgCl2, 100 μM ATP, 5 mM DTT, 5.1 or 25 mM poly (Glu,Tyr) 4:1 for P-FGF or P-LCK assays, respectively, and 15 units/mL each of pyruvate kinase and lactate dehydrogenase. Phosphorylated FGF receptor kinase was present at 100 nM and phosphorylated LCK kinase was present at 50 nM. Assays were performed under initial rate conditions at 37° C., and rates were corrected for any background rate measured in the absence of enzyme. Percent inhibition was calculated relative to control enzyme assayed in the presence of 2% (v/v) DMSO.
# [3] = target: T2, CDK2/cyclin A (Homo sapiens, UniProt P24941); test: Inhibition of CDK2/Cyclin A Retinoblastoma Kinase Activity; format: biochemical; details: apparent Ki
# T2 construct: made in house; host or cells: CDK2: insect cells (baculovirus); cyclin A: E. coli
# Description: (§1) Cyclin-dependent kinase activity was measured by quantifying the enzyme-catalyzed, time-dependent incorporation of radioactive phosphate from [^32P]ATP or [^33P]ATP into a protein substrate. Unless noted otherwise, assays were performed in 96-well plates in a total volume of 50 μL, in the presence of 10 mM HEPES (N-[2-hydroxyethyl]piperazine-N′-[2-ethanesulfonic acid]) (pH 7.4), 10 mM MgCl2, 25 μM adenosine triphosphate (ATP), 1 mg/mL ovalbumin, 5 μg/mL leupeptin, 1 mM dithiothreitol, 10 mM beta-glycerophosphate, 0.1 mM sodium vanadate, 1 mM sodium fluoride, 2.5 mM ethylene glycol-bis(β-aminoethyl ethKer)-N,N,N′N′-tetraacetic acid (EGTA), 2% (v/v) dimethylsulfoxide, and 0.03–0.4 μCi [^32/33P]ATP per reaction. Reactions were initiated with appropriate enzyme, incubated at 30° C., and terminated after 20 minutes by the addition of ethylenediaminetetraacetic acid (EDTA) to 250 mM. The phosphorylated substrate was then captured on a nitrocellulose or phosphocellulose membrane using a 96-well filtration manifold, and unincorporated radioactivity was removed by repeated washing with 0.85% phosphoric acid. Radioactivity was quantified by exposing the dried membranes to a phosphorimager.
# (§2) Apparent Ki values were measured by assaying enzyme activity in the presence of different inhibitor compound concentrations and subtracting the background radioactivity measured in the absence of enzyme. Inhibition data were fit to an equation for competitive inhibition using Kaleidagraph (Synergy Software), or were fit to an equation for competitive tight-binding inhibition using the software KineTic (BioKin, Ltd.).
# Inhibition of CDK2/Cyclin A Retinoblastoma Kinase Activity
# CDK2 was purified using published methodology (Rosenblatt et al., “Purification and Crystallization of Human Cyclin-dependent Kinase 2,” J. Mol. Biol., vol. 230, 1993, pp. 1317–1319) from insect cells that had been infected with a baculovirus expression vector. […] A complex of CDK2 and proteolyzed cyclin A was prepared and purified by gel filtration. The substrate for this assay was the same Rb substrate fragment used for the CDK4 assays, and the methodology of the CDK2/cyclin A and the CDK4/cyclin D3 assays was essentially the same, except that CDK2 was present at 150 nM or 5 nM. Ki values were measured as described above.
# [4] = target: CDK4/cyclin D3 (Homo sapiens, UniProt P11802); test: Inhibition of CDK4/Cyclin D Retinoblastoma Kinase Activity; format: biochemical; details: apparent Ki
# Description: as §1, §2
# Inhibition of CDK4/Cyclin D Retinoblastoma Kinase Activity
# A complex of human CDK4 and cyclin D3, or a complex of human CDK4 and genetically truncated (1–264) cyclin D3, was purified using traditional biochemical chromatographic techniques from insect cells that had been co-infected with the corresponding baculovirus expression vectors (see e.g., Meijer and Kim, “Chemical Inhibitors of Cyclin-Dependent Kinases,” Methods in Enzymol,. vol. 283 (1997), pp. 113–128.). The enzyme complex (5 or 50 nM) was assayed with 0.3–0.5 μg of purified recombinant retinoblastoma protein fragment (Rb) as a substrate. The engineered Rb fragment (residues 386–928 of the native retinoblastoma protein; 62.3 kDa) contains the majority of the phosphorylation sites found in the native 106-kDa protein, as well as a tag of six histidine residues for ease of purification. Phosphorylated Rb substrate was captured by microfiltration on a nitrocellulose membrane and quantified using a phosphorimager as described above. For measurement of tight-binding inhibitors, the enzyme complex concentration was lowered to 5 nM, and the assay duration was extended to 60 minutes, during which the time-dependence of product formation was linear.
# [5] = HCT 116, MTT, IC90, read-out: HCT 116 IC90
# [6] = HCT-116, read-out: HCT 116 IC90 (uM)
# Chain of CDK4/cyclin D3 (P11802 2-303 limits assumed): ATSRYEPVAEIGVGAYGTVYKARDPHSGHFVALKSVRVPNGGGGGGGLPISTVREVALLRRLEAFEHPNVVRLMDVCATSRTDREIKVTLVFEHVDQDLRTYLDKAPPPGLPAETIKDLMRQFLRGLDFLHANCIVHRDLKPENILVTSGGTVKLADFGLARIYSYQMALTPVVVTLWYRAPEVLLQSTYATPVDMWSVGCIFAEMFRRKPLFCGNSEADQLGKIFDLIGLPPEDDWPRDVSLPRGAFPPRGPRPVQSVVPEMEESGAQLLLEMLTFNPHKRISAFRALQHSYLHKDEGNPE
# Chain of CDK4/cyclin D3 (P30281 1-264 limits assumed, further chain): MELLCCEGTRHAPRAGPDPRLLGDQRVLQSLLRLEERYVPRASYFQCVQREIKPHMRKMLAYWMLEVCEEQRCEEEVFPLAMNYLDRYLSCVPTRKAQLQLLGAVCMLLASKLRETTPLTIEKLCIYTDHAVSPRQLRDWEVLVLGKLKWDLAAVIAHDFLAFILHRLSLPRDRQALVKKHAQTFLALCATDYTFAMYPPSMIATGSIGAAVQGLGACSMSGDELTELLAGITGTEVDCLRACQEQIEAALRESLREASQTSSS
# T1 sequence (P11362 456-766 L457V/C488A/C584S): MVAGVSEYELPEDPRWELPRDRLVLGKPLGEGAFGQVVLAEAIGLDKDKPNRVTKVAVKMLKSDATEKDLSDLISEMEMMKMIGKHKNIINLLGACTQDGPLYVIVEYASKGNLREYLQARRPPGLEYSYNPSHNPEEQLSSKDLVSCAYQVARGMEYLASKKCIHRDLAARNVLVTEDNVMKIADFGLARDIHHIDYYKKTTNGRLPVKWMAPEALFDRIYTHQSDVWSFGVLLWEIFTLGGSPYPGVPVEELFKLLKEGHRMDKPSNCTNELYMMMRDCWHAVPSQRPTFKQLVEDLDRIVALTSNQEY
Structure (SMILES),"pIC50 ([1]; HCT 116, MTT)","IC90 [1, 5] [µM]",inhibition at 1 µM [2] [%],pKi [3],pKi [4],IC50 [1] [µM],"IC90 [1, 6] [µM]"
"C(=C\c1n[nH]c2ccc(-c3ccnc4ccccc34)cc12)/c1ccccc1 [Example 17, 4-[3-((E)-Styryl)-1H-indazol-5-yl]-quinoline]",5.49,5,42.6,5.85,–,–,–
"Cc1c(CN2CCOCC2)cncc1-c1ccc2[nH]nc(-c3nc4ccccc4[nH]3)c2c1 [Example 91, 3-(1H-Benzoimidazol-2-yl)-5-(4-methyl-5-morpholin-4-ylmethyl-pyridin-3-yl)-1H-indazole]",6.47,> 0.5,–,8.55,8.12,–,–
"CCNCc1cncc(-c2ccc3[nH]nc(-c4nc5c(SC)cccc5[nH]4)c3c2)c1C [Example 81, Ethyl-4-{methyl-5-[3-(4-methylsulfanyl-1H-benzoimidazol-2-yl)-1H-indazol-5-yl]-pyridin-3-ylmethyl}-amine]",–,0.21,–,8.31,9.10,–,–
"Cc1c(C(N)=O)cncc1-c1ccc2[nH]nc(-c3nc4ccccc4[nH]3)c2c1 [Example 64, 5-[3-(1H-Benzoimidazol-2-yl)-1H-indazol-5-yl]-4-methyl-nicotinamide]",5.89,5,–,7.85,6.72,–,–
"Cc1c(-c2ccc3[nH]nc(-c4nc5ccccc5[nH]4)c3c2)cnc2ccccc12 [Example 76, 3-[3-(1H-Benzoimidazol-2-yl)-1H-indazol-5-yl]-4-methyl-quinoline]",6.30,0.5,–,7.57,6.82,–,–
c1ccc(CNc2cccc3c(-c4ccc5[nH]nc(-c6nc7ccccc7[nH]6)c5c4)cncc23)cc1 [Example 57],–,–,–,7.43,6.19,2,5
"Cc1nc(-c2n[nH]c3ccc(-c4cncc5ccccc45)cc23)[nH]c1-c1ccccc1 [Example 67, 4-[3-(4-Methyl-5-phenyl-1H-imidazol-2-yl)-1H-indazol-5-yl]-isoquinoline]",–,–,–,7.80,6.66,2,4.7
"Cc1c(CNC(C)C)cncc1-c1ccc2[nH]nc(-c3nc4ccccc4[nH]3)c2c1 [Example 78, {5-[3-(1H-Benzoimidazol-2-yl)-1H-indazol-5-yl]-4-methyl-pyridin-3-ylmethyl}-isopropyl-amine]",–,–,–,9.15,8.26,0.085,0.22

# Continued, in another order:
"pIC50 ([1]; HCT 116, MTT)","IC90 [1, 5] [µM]",inhibition at 1 µM [2] [%],pKi [3],pKi [4],Structure (SMILES),IC50 [1] [µM],"IC90 [1, 6] [µM]"
6.74,0.5,–,8.57,8.11,"Cc1c(CNC2CCCC2)cncc1-c1ccc2[nH]nc(-c3nc4ccccc4[nH]3)c2c1 [Example 92, {5-[3-(1H-Benzoimidazol-2-yl)-1H-indazol-5-yl]-4-methyl-pyridin-3-ylmethyl}-cyclopentyl-amine]",–,–
7.52,0.12,–,9.52,10.05,"CNC(C)c1cccc2[nH]c(-c3n[nH]c4ccc(-c5cncc6ccccc56)cc34)nc12 (stereo not drawn) [Example 90, {1-[2-(5-Isoquinolin-4-yl-1H-indazol-3-yl)-1H-benzoimidazol-4-yl]-ethyl}-methyl-amine]",–,–
6.82,0.25,–,9.03,9.00,"Cc1c(CNCCO)cncc1-c1ccc2[nH]nc(-c3nc4ccccc4[nH]3)c2c1 [Example 89, 2-({5-[3-(1H-Benzoimidazol-2-yl)-1H-indazol-5-yl]-4-methyl-pyridin-3-ylmethyl}-amino)-ethanol]",–,–
6.40,1.3,–,8.85,8.01,Cc1cncc(-c2ccc3[nH]nc(-c4nc5ccccc5[nH]4)c3c2)c1C [Example 75],–,–
6.30,0.5,–,9.38,8.66,"C(=N\n1cccc1)/c1n[nH]c2ccc(-c3cncc4ccccc34)cc12 [Example 79, (5-Isoquinolin-4-yl-1H-indazol-3-ylmethylene)-pyrrol-1-yl-amine]",–,–
6.49,> 0.5,–,9.21,8.72,"Cc1c(CNc2cccnc2)cncc1-c1ccc2[nH]nc(-c3nc4ccccc4[nH]3)c2c1 [Example 93, {5-[3-(1H-Benzoimidazol-2-yl)-1H-indazol-5-yl]-4-methyl-pyridin-3-ylmethyl}-pyridin-3-yl-amine]",–,–
7.74,0.06,–,8.96,8.05,"CC(C)(C)NCc1cccc2[nH]c(-c3n[nH]c4ccc(-c5cncc6ccccc56)cc34)nc12 [Example 39, tert-Butyl-[2-(5-isoquinolin-4-yl-1H-indazol-3-yl)-1H-benzoimidazol-4-ylmethyl]-amine]",–,–
< 6.30,> 0.5,–,8.85,8.46,"Cc1c(CNCc2ccccc2)cncc1-c1ccc2[nH]nc(-c3nc4ccccc4[nH]3)c2c1 [Example 88, {5-[3-(1H-Benzoimidazol-2-yl)-1H-indazol-5-yl]-4-methyl-pyridin-3-ylmethyl}-benzyl-amine]",–,–
